The source of these data is patent US5750530A, “Pharmaceutical diketopiperazine compounds” (Xenova Limited, priority 1994, dated 1998).

The target of this assay is PAI-1 (Homo sapiens, UniProt P05121). Put plainly: biochemical. Format: biochemical. The method, then:
The present compounds have been tested in a PAI functional assay. In this assay, a compound is incubated with PAI-1 prior to addition to the tPA assay system. Inhibition of PAI-1 results in the production of plasmin from plasminogen. In turn, plasmin cleaves the chromogenic substrate S2251 (Kabi Vitrum) producing pNA (p-nitroaniline) which is detected spectrophotometrically at 405 nm (K. Nilsson et al, Fibrinolysis (1987) 1, 163-168).
The present compounds were tested in a PAI chromogenic substrate assay. In the assay (K. Nilsson, Fibrinolysis (1987) 1, 163-168) each compound was incubated with PAI-1 prior to addition to the tPA assay system. […] In turn, the plasmin cleaved the chromogenic substrate S2251 (Kabi-Vitrum) producing pNA (p-nitroaniline) which was detected spectrophotometrically at 405 nm.
The degrees of inhibition observed in the chromogenic substrate assay at various concentrations, or the IC50 values, for each compound are presented in Table 1.

Setting [1] is: PAI chromogenic substrate assay.

Structures can show the parent of a compound that is named as a salt. Where two headings read alike, the source gives them in different places.

For orientation: % Inhibition means the change of the read-out against control, counted positive when it falls. Broadly, the IC50 is the point on the concentration scale where inhibition reaches its midpoint. Higher therefore signals weaker potency.

Chain of PAI-1 (P05121 24-402): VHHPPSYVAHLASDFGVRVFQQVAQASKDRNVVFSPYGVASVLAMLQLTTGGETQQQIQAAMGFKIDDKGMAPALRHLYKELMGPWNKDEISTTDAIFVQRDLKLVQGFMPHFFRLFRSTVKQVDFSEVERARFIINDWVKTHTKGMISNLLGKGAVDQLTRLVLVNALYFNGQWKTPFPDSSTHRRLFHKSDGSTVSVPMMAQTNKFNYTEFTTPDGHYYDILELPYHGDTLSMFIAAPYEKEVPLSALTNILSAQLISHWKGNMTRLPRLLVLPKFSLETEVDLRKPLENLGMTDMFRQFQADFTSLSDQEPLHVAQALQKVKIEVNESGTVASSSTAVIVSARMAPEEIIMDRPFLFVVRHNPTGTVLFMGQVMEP

Regarding `CN(C)CCSc1ccc(/C=c2\[nH]c(=O)/c(=C/c3cccc(C(F)(F)F)c3)[nH]c2=O)cc1` [Compound 5423, (3Z,6Z)-6-(4-(2-Dimethylaminoethylthio)benzylidene)-3-(3-trifluoromethylbenzylidene)-2,5-piperazinedione], the “% Inhibition” value (20 μm) turned out to be 11%.

With `CN(C)CCSc1ccc(/C=c2\[nH]c(=O)/c(=C/c3ccc(Br)cc3)[nH]c2=O)cc1` [Compound 5480.HCl, (3Z,6Z)-3-(4-Bromobenzylidene)-6-(4-(2-dimethylaminoethylthio)benzylidene)-2,5-piperazinedione], the “% Inhibition” value is, setting by setting: (5 μm) 52%; (20 μm) 76%.

For the molecule `CSc1ccc(/C=c2\[nH]c(=O)/c(=C/c3ccc(SCCN(C)C)cc3)[nH]c2=O)cc1` [Compound 5426.HCl, (3Z,6Z)-3-(4-(2-Dimethylaminoethylthio)benzylidene)-6-(4-methylthiobenzyidene)-2,5-piperazinedione], the “% Inhibition” value runs as follows: (5 μm) 35%; (20 μm) 55%. For the same molecule, the concentration for half-maximal inhibition (IC50) under setting [1] was found to be 5.4 µM.

For `CN(C)CCSc1ccc(/C=c2\[nH]c(=O)/c(=C/c3ccc(C(C)(C)C)cc3)[nH]c2=O)cc1` [Compound 5440.HCl, (3Z,6Z)-3-(4-(2-Dimethylaminoethylthio)benzylidene)-6-(4-tert-butylbenzylidene)-2,5-piperazinedione], the “% Inhibition” value (5 μm) is reported as 20% and the “% Inhibition” value (20 μm) worked out at 36%.

`CN(C)CCSc1ccc(/C=c2\[nH]c(=O)/c(=C/c3ccc(N(C)C)cc3)[nH]c2=O)cc1` [Compound 5424, (3Z,6Z)-3-(4-Dimethylaminobenzylidene)-6-(4-(2-dimethylaminoethylthio)benzylidene)-2,5-piperazinedione]: the “% Inhibition” value was found to be 6% (5 μm) and 23% (20 μm). The molecule also gave a half-maximal inhibitory concentration (IC50) under setting [1] of 13.7 µM.

Turning to `CN(C)CCSc1ccc(/C=c2\[nH]c(=O)/c(=C/c3ccc(OCc4ccccc4)cc3)[nH]c2=O)s1` [Compound 5482.HCl, (3Z,6Z)-6-(4-Benzyloxybenzylidene)-3-(5-(2-dimethylaminoethylthio)-2-thienyl)methylene-2,5-piperazinedione], the “% Inhibition” value is, setting by setting: (5 μm) 13%; (20 μm) 59%.

Regarding `CN(C)CCSc1ccc(/C=c2\[nH]c(=O)/c(=C/c3ccc4c(c3)Cc3ccccc3-4)[nH]c2=O)s1` [Compound 5301, (3Z,6Z)-3-(5-(2-Dimethylaminoethylthio)-2-thienyl)methylene-6-(2-fluorenylmethylene)-2,5-piperazinedione], the “% Inhibition” value worked out at 65% (20 μm) and 107% (100 μm). The molecule further came in with an IC50 under setting [1] of 20 µM.

As to `CN(C)CCSc1ccc(/C=c2\[nH]c(=O)/c(=C/c3cccc(Br)c3)[nH]c2=O)cc1` [Compound 5425, (3Z,6Z)-3-(3-Bromobenzylidene)-6-(4-(2-dimethylaminoethylthio)benzylidene)-2,5-piperazinedione], the “% Inhibition” value reads like this: (5 μm) 37%; (20 μm) 57%. The IC50 under setting [1] stood at 3.7 µM.

With `CC(=O)Nc1ccc(/C=c2\[nH]c(=O)/c(=C/c3ccc(SCCN(C)C)s3)[nH]c2=O)cc1` [Compound 5300.HCl, (3Z,6Z)-6-(4-Acetamidobenzylidene)-3-(5-(2-dimethylaminoethylthio)-2-thienyl)methylene-2,5-piperazinedione], the “% Inhibition” value (5 μm) is 10%, the “% Inhibition” value (20 μm) is 41% and the “% Inhibition” value (100 μm) came to 26%.

As for `Cc1ccc(/C=c2\[nH]c(=O)/c(=C/c3ccc(SCCN(C)C)s3)[nH]c2=O)cc1` [Compound 5460.HCl, (3Z,6Z)-3-(5-(2-Dimethylaminoethylthio)-2-thienyl)methylene-6-(4-methylbenzylidene)-2,5-piperazinedione], the “% Inhibition” value (5 μm) is reported as 31% and the “% Inhibition” value (20 μm) is reported as 78%. Further, under setting [1], it took 12.6 µM to reach half-maximal inhibition (IC50).

For the molecule `CN(C)CCSc1ccc(/C=c2\[nH]c(=O)/c(=C/C3CCCCC3)[nH]c2=O)s1` [Compound 5454, (3Z,6Z)-6-Cyclohexylmethylene-3-(5-(2-dimethylaminoethylthio)-2-thienyl)methylene-2,5-piperazinedione], the “% Inhibition” value by setting is: (5 μm) 47%; (20 μm) 75%. The molecule further came in with an IC50 under setting [1] of 5.5 µM.

On to `CN(C)CCSc1ccc(/C=c2\[nH]c(=O)/c(=C/c3ccc(Br)cc3)[nH]c2=O)s1` [Compound 5489.HCl, (3Z,6Z)-6-(4-Bromobenzylidene)-3-(5-(2-dimethylaminoethylthio)-2-thienyl)methylene-2,5-piperazinedione], for which the “% Inhibition” value runs as follows: (5 μm) 9%; (20 μm) 55%. The same molecule displayed an IC50 under setting [1] of 12.6 µM.

Take `CN(C)CCSc1ccc(/C=c2\[nH]c(=O)/c(=C/c3ccc4c(c3)CCO4)[nH]c2=O)s1` [Compound 5311, (3Z,6Z)-3-(2,3-dihydro-5-benzofuranyl)methylene-6-(5-(2-dimethylaminoethylthio)-2-thienyl)methylene-2,5-piperazinedione]: the half-inhibitory concentration (IC50) turned out to be 15 µM.

In the case of `CN(C)CCSc1ccc(/C=c2\[nH]c(=O)/c(=C/c3ccc(N(C)C)cc3)[nH]c2=O)cc1` [Compound 5424.HCl, (3Z,6Z)-3-(4-Dimethylaminobenzylidene)-6-(4-(2-dimethylaminoethylthio)benzylidene)-2,5-piperazinedione], the “% Inhibition” value is reported as 8% (5 μm) and 45% (20 μm). In addition, the IC50 under setting [1] worked out at 15.7 µM.

Regarding `CN(C)CCSc1ccc(/C=c2\[nH]c(=O)/c(=C/c3ccc(Br)cc3)[nH]c2=O)s1` [Compound 5489, (3Z,6Z)-6-(4-Bromobenzylidene)-3-(5-(2-dimethylaminoethylthio)-2-thienyl)methylene-2,5-piperazinedione], the “% Inhibition” value runs as follows: (5 μm) 6%; (20 μm) 56%. The same molecule showed a concentration for half-maximal inhibition (IC50) under setting [1] of 13.6 µM.

On to `CC(C)N(CCSc1ccc(/C=c2\[nH]c(=O)/c(=C/c3ccccc3)[nH]c2=O)s1)C(C)C` [Compound 5399, (3Z,6Z)-6-Benzylidene-3-(5-(2-diisopropylaminoethylthio)-2-thienyl)methylene-2,5-piperazinedione], for which the “% Inhibition” value reads like this: (5 μm) 23%; (20 μm) 43%.

`CN(C)CCSc1ccc(/C=c2\[nH]c(=O)/c(=C/c3ccsc3)[nH]c2=O)s1` [Compound 5257, (3Z,6Z)-3-(5-(2-Dimethylaminoethylthio)-2-thienyl)methylene-6-(3-thienyl)methylene-2,5-piperazinedione]: the “% Inhibition” value stood at 77% (20 μm) and 41% (100 μm). Under setting [1], this molecule registered a half-inhibitory concentration (IC50) of 7 µM.

In the case of `COc1ccc2ccccc2c1/C=c1\[nH]c(=O)/c(=C/c2ccc(SCCN(C)C)s2)[nH]c1=O` [Compound 5499, (3Z,6Z)-3-(5-(2-Dimethylaminoethylthio)-2-thienyl)methylene-6-(2-methoxy-1-naphthyl)methylene-2,5-piperazinedione], the “% Inhibition” value is, setting by setting: (5 μm) 2%; (20 μm) 61%. The same molecule had an IC50 under setting [1] of 11.8 µM.

Regarding `CN(C)CCSc1ccc(/C=c2\[nH]c(=O)/c(=C/c3ccoc3)[nH]c2=O)cc1` [Compound 5129.HCl, (3Z,6Z)-6-(4-(2-Dimethylaminoethylthio)benzylidene)-3-(3-furylmethylene)-2,5-piperazinedione], the “% Inhibition” value turned out to be 51% (5 μm), 68% (20 μm) and 50% (100 μm). The same molecule gave a half-maximal inhibitory concentration (IC50) under setting [1] of 4.5 µM.
